Results from patent publication US8283353B2, “Fused ring compound and use thereof” (Takeda Pharmaceutical Company Limited, priority 2009, dated 2012).
Structures can show the parent of a compound that is named as a salt.

Key:
human AT1 receptor = target: T1, human AT1 receptor (Homo sapiens, UniProt P30556); experiment: AT1 receptor antagonistic activity: [125I]-angiotensin II binding assay on human AT1 receptor-expressing CHO-K1 cellular membrane fraction; settings: 22.5 pM [125I]-angiotensin II, 1 hr room temperature
T1 construct: expressed in transfected cells; membrane fraction
T1 sequence (P30556 1-359): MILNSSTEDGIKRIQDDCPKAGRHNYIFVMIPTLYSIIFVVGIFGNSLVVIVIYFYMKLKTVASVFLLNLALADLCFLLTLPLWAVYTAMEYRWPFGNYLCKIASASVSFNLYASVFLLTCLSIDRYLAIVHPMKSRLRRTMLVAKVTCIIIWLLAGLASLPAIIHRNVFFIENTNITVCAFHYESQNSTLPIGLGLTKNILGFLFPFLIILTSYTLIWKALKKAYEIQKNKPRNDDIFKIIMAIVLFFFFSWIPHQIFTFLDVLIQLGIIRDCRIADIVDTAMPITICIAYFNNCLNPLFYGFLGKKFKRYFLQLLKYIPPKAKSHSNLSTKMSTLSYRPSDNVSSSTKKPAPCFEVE
How it was run: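 Competition binding used radiolabelled angiotensin II on stably transfected CHO-K1 membrane fractions in Tris pH 7.4/MgCl2 buffer, optionally containing 0.3 mg/mL fatty acid-free BSA, 1 hr at room temperature. Filtration onto GF/C separated bound tracer, and nonspecific binding was measured with candesartan.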

human PPARγ = target: T2, human PPARγ (Homo sapiens, UniProt P37231); experiment: PPARγ agonistic activity: luciferase reporter assay in PPARγ:RXRα:4ERPP/CHO-K1 cells; format: cell-based; settings: CHO-K1, test compound 10^−6 M; luciferase activity of control compound X (1 μM) = 100%, non-administration group = 0%
T2 construct: expressed in transfected cells
T2 sequence (P37231 1-477 isoform P37231-2): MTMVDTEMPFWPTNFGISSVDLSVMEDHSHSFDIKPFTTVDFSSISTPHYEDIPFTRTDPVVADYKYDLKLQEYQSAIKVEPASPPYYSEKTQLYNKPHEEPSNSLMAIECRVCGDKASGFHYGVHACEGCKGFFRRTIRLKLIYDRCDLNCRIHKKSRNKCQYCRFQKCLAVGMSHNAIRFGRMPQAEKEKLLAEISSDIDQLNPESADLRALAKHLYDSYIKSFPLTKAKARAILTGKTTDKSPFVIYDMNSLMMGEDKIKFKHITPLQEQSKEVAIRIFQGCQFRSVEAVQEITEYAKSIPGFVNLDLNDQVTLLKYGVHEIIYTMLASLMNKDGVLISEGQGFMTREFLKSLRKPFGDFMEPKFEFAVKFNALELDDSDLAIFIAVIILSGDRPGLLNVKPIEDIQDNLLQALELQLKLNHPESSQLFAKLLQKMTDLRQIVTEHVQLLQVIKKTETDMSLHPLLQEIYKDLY
T2 sequence (P19793 1-462 partner): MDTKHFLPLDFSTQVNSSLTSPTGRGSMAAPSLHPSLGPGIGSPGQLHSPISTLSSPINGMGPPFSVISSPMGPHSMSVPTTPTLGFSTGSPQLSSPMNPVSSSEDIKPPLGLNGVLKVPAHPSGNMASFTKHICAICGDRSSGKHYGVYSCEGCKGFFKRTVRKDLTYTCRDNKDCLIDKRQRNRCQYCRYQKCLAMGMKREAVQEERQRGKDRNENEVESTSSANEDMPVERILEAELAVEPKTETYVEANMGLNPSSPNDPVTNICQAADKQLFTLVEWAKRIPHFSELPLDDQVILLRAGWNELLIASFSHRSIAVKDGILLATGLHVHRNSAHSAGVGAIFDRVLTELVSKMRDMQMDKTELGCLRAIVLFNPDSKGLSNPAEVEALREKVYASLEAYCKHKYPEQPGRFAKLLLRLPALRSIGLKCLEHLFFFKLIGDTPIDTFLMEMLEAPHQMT
How it was run: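 CHO-K1 cells stably carrying hPPARγ/RXRα and a 4ERPP luciferase reporter, dosed with test compound for 1 day at 37 °C in Ham's F12 with 0.1% fatty acid-free BSA. Luciferase read by luminescence; activity given as % of 1 μM control compound X (100%) versus untreated (0%).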

Male SHRs = experiment: Antihypertensive effect: mean blood pressure in male SHRs after oral administration; format: in vivo, rat; settings: male SHR, dose 3 mg/kg, MBP measured during 24 hours
Procedure: Male SHRs (28-40 weeks old, Japan SLC, Inc., Japan) were anesthetized with sodium pentobarbital (50 mg/kg, i.p.). The left femoral artery was cannulated with a polyethylene catheter filled with saline comprising heparin (200 U/mL). The catheter was exteriorized at the back of the neck and each SHR was individually housed in a cage and left two or four days to recover. The mean blood pressure (MBP) was obtained from the systemic blood pressure which was monitored from the femoral artery using a pressure transducer connected to a polygraph system (Nihon Kohden Corporation). The heart rate was measured from the blood pressure pulse intervals. The rats which had MBP over 150 mmHg were used for the experiment. When the blood pressure had stabilized, vehicle (0.5 w/v % methylcellulose) or compounds were orally administered. All compounds were suspended in 0.5 w/v % methylcellulose and orally administered at a volume of 2 mL/kg. The MBP was measured during 24 hours after the administration.

Row | Molecule | IC50 (human AT1 receptor) | activation at 1 µM (human PPARγ) | Maximum MBP reduction (mmHg) (Male SHRs)
1 | CCCc1c(Cc2ccc(-c3ccccc3-c3noc(=O)[nH]3)cc2)c(=O)n([C@H]2CC[C@@]3(CCC(CO)O3)CC2)c2ncnn12 (stereo partly drawn) [Example 392, 4-[(5R,8R)-2-(hydroxymethyl)-1-oxaspiro[4.5]dec-8-yl]-6-{[2′-(5-oxo-4,5-dihydro-1,2,4-oxadiazol-3-yl)biphenyl-4-yl]methyl}-7-propyl[1,2,4]triazolo[1,5-a]pyrimidin-5(4H)-one] | 2.2 nM | 20% | 
2 | CCCc1c(Cc2ccc(-c3ccccc3-c3noc(=O)[nH]3)cc2)c(=O)n([C@H]2CC[C@H](OCC(C)(C)O)CC2)c2ccnn12 [Example 415, 4-[trans-4-(2-hydroxy-2-methylpropoxy)cyclohexyl]-6-{[2′-(5-oxo-4,5-dihydro-1,2,4-oxadiazol-3-yl)biphenyl-4-yl]methyl}-7-propylpyrazolo[1,5-a]pyrimidin-5(4H)-one potassium salt] |  |  | 63 mmHg
3 | CCCc1c(Cc2ccc(-c3ccccc3-c3noc(=O)[nH]3)cc2)c(=O)n([C@H]2CC[C@H](OCC(C)=O)CC2)c2ccnn12 [Example 420, 6-{[2′-(5-oxo-4,5-dihydro-1,2,4-oxadiazol-3-yl)biphenyl-4-yl]methyl}-4-[trans-4-(2-oxopropoxy)cyclohexyl]-7-propylpyrazolo[1,5-a]pyrimidin-5(4H)-one] | 2.2 nM | 21% | 
4 | CCCc1c(Cc2ccc(-c3ccccc3-c3noc(=O)[nH]3)cc2)c(=O)n([C@H]2CC[C@H](OCC3(O)CC3)CC2)c2ccnn12 [Example 427, 4-{trans-4-[(1-hydroxycyclopropyl)methoxy]cyclohexyl}-6-{[2′-(5-oxo-4,5-dihydro-1,2,4-oxadiazol-3-yl)biphenyl-4-yl]methyl}-7-propylpyrazolo[1,5-a]pyrimidin-5(4H)-one] | 1.9 nM | 18% | 
5 | CCCCc1c(Cc2ccc(-c3ccccc3-c3noc(=O)[nH]3)cc2)c(=O)n([C@H]2CC[C@H](OCC(C)(C)O)CC2)c2ccnn12 [Example 434, 7-butyl-4-[trans-4-(2-hydroxy-2-methylpropoxy)cyclohexyl]-6-{[2′-(5-oxo-4,5-dihydro-1,2,4-oxadiazol-3-yl)biphenyl-4-yl]methyl}pyrazolo[1,5-a]pyrimidin-5(4H)-one] | 2.1 nM | 25% | 
6 | CCCc1c(Cc2ccc(-c3ccccc3-c3noc(=O)[nH]3)cc2F)c(=O)n([C@H]2CC[C@H](OCC(C)(C)O)CC2)c2ccnn12 [Example 435, 6-{[3-fluoro-2′-(5-oxo-4,5-dihydro-1,2,4-oxadiazol-3-yl)biphenyl-4-yl]methyl}-4-[trans-4-(2-hydroxy-2-methylpropoxy)cyclohexyl]-7-propylpyrazolo[1,5-a]pyrimidin-5(4H)-one] | 1.7 nM | 30% | 
7 | CCCc1c(Cc2ccc(-c3ccccc3-c3noc(=O)[nH]3)cc2)c(=O)n([C@H]2CC[C@H](OCC(C)(C)O)CC2)c2c(F)cnn12 [Example 442, 3-fluoro-4-[trans-4-(2-hydroxy-2-methylpropoxy)cyclohexyl]-6-{[2′-(5-oxo-4,5-dihydro-1,2,4-oxadiazol-3-yl)biphenyl-4-yl]methyl}-7-propylpyrazolo[1,5-a]pyrimidin-5(4H)-one] | 2 nM | 22% | 
8 | CCCCc1c(Cc2ccc(-c3ccccc3-c3nnn[nH]3)cc2F)c(=O)n([C@H]2CC[C@H](OCC(C)(C)O)CC2)c2ncnn12 [Example 457, 7-butyl-6-{[3-fluoro-2′-(1H-tetrazol-5-yl)biphenyl-4-yl]methyl}-4-[trans-4-(2-hydroxy-2-methylpropoxy)cyclohexyl][1,2,4]triazolo[1,5-a]pyrimidin-5(4H)-one] | 1.8 nM | 19% | 
9 | (−)-6-{[3-fluoro-2′-(5-oxo-4,5-dihydro-1,2,4-oxadiazol-3-yl)biphenyl-4-yl]methyl}-4-[trans-4-(2-hydroxy-1,2-dimethylpropoxy)cyclohexyl]-7-propyl[1,2,4]triazolo[1,5-a]pyrimidin-5(4H)-one potassium salt (retention time: long) [Example 459] |  |  | 64 mmHg
